Data: ChEMBL document CHEMBL1782002, “Metachromins U-W: cytotoxic merosesquiterpenoids from an Australian specimen of the sponge Thorecta reticulata” (J Nat Prod, 2011)

Tests used:
SF-268 = assay: Cytotoxicity against human SF268 cells after 48 hrs by SRB assay; format: functional; details: SF-268, 48 h
MCF7 = assay: Cytotoxicity against human MCF7 cells after 48 hrs by SRB assay; format: functional; details: MCF7, 48 h
NCI-H460 = assay: Cytotoxicity against human H460 cells after 48 hrs by SRB assay; format: functional; details: NCI-H460, 48 h
HT-29 = assay: Cytotoxicity against human HT-29 cells after 48 hrs by SRB assay; format: functional; details: HT-29, 48 h
[1] = Cytotoxicity against […] cells after 48 hrs by SRB assay; format: cell-based, Cricetulus griseus; details: chinese hamster, CHO-K1 cells

Structure (SMILES) | GI50 (SF-268) | GI50 (MCF7) | GI50 (NCI-H460) | GI50 (HT-29) | GI50 at 48 h [1]
C=C1CCCC(C)(C)C1CC/C(C)=C/Cc1cc(O)ccc1O (stereo not given) [METACHROMIN V] | 5.1 µM | 3.2 µM | 5.1 µM | 10 µM | 2.1 µM
C=C1CCCC(C)(C)C1CCc1ccc2c(c1)C(=O)C=C(OC)C2=O (stereo not given) [METACHROMIN W] | 104 µM | 107 µM | 50 µM | 130 µM | 89 µM
C=C1CCCC(C)(C)C1CCC1(C)C=Cc2cc(O)cc(OC)c2O1 (stereo not given) [METACHROMIN U] | 32 µM | 29 µM | 37 µM | 30 µM | 27 µM
CC(=O)O[C@H]1C(=O)[C@@]2(C)[C@H]([C@H](OC(=O)c3ccccc3)[C@]3(O)C[C@H](OC(=O)[C@H](O)[C@@H](NC(=O)c4ccccc4)c4ccccc4)C(C)=C1C3(C)C)[C@]1(OC(C)=O)CO[C@@H]1C[C@@H]2O [PACLITAXEL] | 0.012 µM | 0.012 µM | 0.024 µM | 0.012 µM | 5.9 µM
CN[C@@H]1C[C@H]2O[C@@](C)([C@@H]1OC)n1c3ccccc3c3c4c(c5c6ccccc6n2c5c31)C(=O)NC4 [STAUROSPORINE] | 0.044 µM | 11 µM | 3.6 µM | 3.6 µM | 0.13 µM
